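Values below derive from 48-hour exposures of cells grown in 96-well plates, with endpoints linearly interpolated between the two concentrations bracketing the appropriate inhibition level. At the GI50, growth is halved. TGI: total growth inhibition.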
Experiments:
Assay in all cases: growth of human tumour cells (NCI), 48 h
[1] = system: MALME-3M melanoma
[2] = system: SK-MEL-5 melanoma
[3] = system: KM12 colon
[4] = system: CAKI-1 renal
[5] = system: BT-549 breast
[6] = system: UO-31 renal
[7] = system: T-47D breast
[8] = system: TK-10 renal
[9] = system: SF-268 CNS
[10] = system: OVCAR-4 ovarian

SMILES	GI50 [1] [µM]	TGI [1] [µM]	GI50 [2] [µM]	TGI [2] [µM]	GI50 [3] [µM]	TGI [3] [µM]	GI50 [4] [µM]	TGI [4] [µM]	GI50 [5] [µM]	TGI [5] [µM]	GI50 [6] [µM]	TGI [6] [µM]	GI50 [7] [µM]	TGI [7] [µM]	GI50 [8] [µM]	TGI [8] [µM]	GI50 [9] [µM]	TGI [9] [µM]	GI50 [10] [µM]	TGI [10] [µM]
COc1ccc(C(O)(CCC(C)C)C(CN2CCOCC2)c2ccc(Cl)cc2)cc1 (centres undefined)	19.1	39.5	13.8	30.9	11.4	26.2	14	31.7	14.9	30	11.3	25.9	11.4	26.9	16.7	31.3	14	29.3	12.1	27.4
COc1cc(/C=C/C(=O)c2cccc(-n3cc(-c4ccc(Cl)cc4)[nH]c3=O)c2)ccc1O	5.99	22.2	1.88	5.22	1.6	3.42	5.02	44.9	2.89	10.9	1.26	> 37	3.39	17.8	6.6	> 65.5	2.93	12.6	3.11	> 23.7
O=C(/C=C/C=C/c1ccccc1)c1ccccc1	–	21.6	–	30.2	–	27.3	–	31.4	–	43.5	–	38.2	–	48.2	–	42.3	–	38.2	–	39.7
CCc1c(Cl)c(C)cc(O)c1Cl	–	> 100	–	28.6	–	> 100	–	> 100	–	42.8	–	56.8	–	> 100	–	> 100	–	> 100	–	> 100
COc1ccc(C2=C(c3ccc(OC)cc3)C(=O)N3CCCC3C2)cc1 (centres undefined)	52.6	> 100	10.1	84.3	9.26	> 100	21.1	> 100	17.1	> 89.8	19.7	> 100	28	> 100	22.8	> 100	16.4	> 100	15.5	> 100
CN(C)c1ccc(N=Nc2ccccn2)c(O)c1	1.44	> 100	0.433	3.35	0.465	> 76.9	0.344	> 100	0.391	> 100	0.215	–	0.419	> 49.1	0.177	43.9	0.318	> 100	0.164	24.6
Cc1cc2cc3c(=O)[nH]c(=O)[nH]c3nc2cc1C	–	> 100	–	> 100	–	> 100	–	> 100	–	> 100	–	> 100	–	> 100	–	> 100	–	> 100	–	> 100
COc1cc2c3c(c1OC)-c1cc4c(cc1CC3(C#N)N(C(=O)c1ccccc1)CC2)OCO4 (centres undefined)	–	97.7	–	> 100	–	> 100	–	> 81	–	> 100	–	> 94.1	–	> 100	–	71	–	> 91	–	43
CS(=O)(=O)Nc1cc(-c2ccc3ncnc(Nc4c(Cl)ccc5c4OCO5)c3c2)cnc1Cl	0.0525	0.515	0.191	0.465	0.465	1.87	0.053	0.869	0.132	1.04	0.0403	0.938	0.0243	0.606	0.047	0.888	0.119	1.48	0.348	4.45

Source: PubChem BioAssay (NCI)
